Read-outs that look alike come from different tables or passages of the source.
How the values were obtained:
[1] = long-distance runners, 20 miles, intake of 2.8 g, placebo-controlled; cited from earlier work
[2] = person, daily supplement of 5 g
[3] = person, run over marathon distance (26.2 miles), daily supplement of 10 g
[4] = 12 hours of storage in a refrigerator; clear, yellow liquid
[5] = cited from earlier work
[6] = test system: intestinal bacteria; details: by intestinal bacteria; cited from earlier work

C[N+](C)(C)CCO.[Cl-] [choline chloride]
performance increase [1]: approximately 3%

choline pyruvate [Example 1]
Appearance (Day 4): clear
HPLC content Parapyruvate (Day 4): 2.7%
HPLC content Pyruvate (Day 4): 35.3%
IC content Choline (Day 4): 50.6%
Appearance (Day 21): clear
HPLC content Parapyruvate (Day 21): 2.6%
HPLC content Pyruvate (Day 21): 35.8%
IC content Choline (Day 21): 50.6%
Appearance (Day 42): clear
HPLC content Parapyruvate (Day 42): 2.6%
HPLC content Pyruvate (Day 42): 35.5%
IC content Choline (Day 42): 50.7%
Appearance (Day 103): clear
HPLC content Parapyruvate (Day 103): 2.8%
HPLC content Pyruvate (Day 103): 35.9%
IC content Choline (Day 103): 50.6%
fat-free body mass [2]: increase
weight reduction [2]: approximately 3%
performance increase [3]: 4%
stability during storage [4]: remained stable

C[N+](C)(C)CCO [choline, hydroxyethyltrimethylammonium]
lowest-observed-adverse-effect level (LOAEL) ([5]; in vivo): 7.5 g/day
upper tolerable daily dose ([5]; taking into consideration an element of uncertainty): 3.5 g
oral intake converted into di- or trimethylamine [6]: Approximately 60%
